Assay results: ChEMBL document CHEMBL1144311, “Synthesis of argentatin A derivatives as growth inhibitors of human cancer cell lines in vitro” (Bioorg Med Chem Lett, 2005)

Columns and labels:
Format in all cases: functional, cell-based
[1] = test system: PC-3; test: Inhibitory concentration towards human prostatic adenocarcinoma cell line (PC-3) was determined
[2] = test system: U-251; test: Inhibitory concentration towards human central nervous system glioblastoma cell line (U251) was determined
[3] = test system: K562; test: Inhibitory concentration towards chronic myelogenous leukemic cell line (K562) was determined; conditions: Homo sapiens
[4] = test system: HCT-15; test: Inhibitory concentration towards human colon adenocarcinoma cell line (HCT-15) was determined
[5] = test system: PC-3; test: Inhibitory concentration against human prostatic adenocarcinoma cell line (PC-3) was determined

CC1(C)c2oncc2C[C@]23C[C@]24CC[C@]2(C)C([C@]5(C)CC[C@H](C(C)(C)O)O5)[C@@H](O)C[C@@]2(C)C4CCC13 (stereo not given in full) was tested, and the IC50 [1] was 13 µM, the IC50 [2] was 11.3 µM and the IC50 [3] was 11 µM. For the same compound, the IC50 [4] was 10.2 µM.
Compound CC1(C)C(=O)CC[C@]23C[C@]24CC[C@]2(C)C([C@]5(C)CC[C@H](C(C)(C)O)O5)[C@@H](O)C[C@@]2(C)C4CCC13 (stereo not given in full) has an IC50 [1] of 20.2 µM, an IC50 [2] of 27.3 µM and an IC50 [3] of 38.6 µM. The IC50 [4] was 31.7 µM.
In the case of CC1(C)C(=O)[C@H](Br)C[C@]23C[C@]24CC[C@]2(C)C([C@]5(C)CC[C@H](C(C)(C)O)O5)[C@@H](O)C[C@@]2(C)C4CCC13 (stereo not given in full), the IC50 [5] is reported as 11.1 µM, the IC50 [2] is reported as 13.9 µM and the IC50 [3] is reported as 4.34 µM. It also gave an IC50 [4] of 3.23 µM.
CC1(C)C(=O)C=C[C@]23C[C@]24CC[C@]2(C)C([C@]5(C)CC[C@H](C(C)(C)O)O5)[C@@H](O)C[C@@]2(C)C4CCC13 (stereo not given in full) gave an IC50 [1] of 15.3 µM, an IC50 [2] of 18.9 µM and an IC50 [3] of 16.8 µM. The IC50 [4] was 16.7 µM.
In the case of CC(=O)OC1C[C@@]2(C)C3CCC4C(C)(C)C(=O)C=C[C@@]45C[C@@]35CC[C@]2(C)C1[C@]1(C)CC[C@H](C(C)(C)OC(C)=O)O1 (stereo not given in full), the IC50 [1] is reported as 13.9 µM, the IC50 [2] is reported as 58.4 µM and the IC50 [3] is reported as > 100 µM. For the same compound, the IC50 [4] was > 100 µM.
In the case of CC(=O)O[C@H]1C[C@@]2(C)C3CCC4C(C)(C)/C(=N\O)CC[C@@]45C[C@@]35CC[C@]2(C)C1[C@]1(C)CC[C@H](C(C)(C)OC(C)=O)O1 (stereo not given in full), the IC50 [1] is reported as 12.6 µM, the IC50 [2] is reported as 21.4 µM and the IC50 [3] is reported as 15.2 µM. For the same compound, the IC50 [4] was 28.9 µM.
CC1(C)/C(=N/O)C=C[C@]23C[C@]24CC[C@]2(C)C([C@]5(C)CC[C@H](C(C)(C)O)O5)[C@@H](O)C[C@@]2(C)C4CCC13 (stereo not given in full) gave an IC50 [1] of 46.9 µM, an IC50 [2] of 26.8 µM and an IC50 [3] of 44.4 µM. For the same compound, the IC50 [4] was 35.8 µM.
Work on CC(=O)O[C@H]1C[C@@]2(C)C3CCC4C(C)(C)C(=O)CC[C@@]45C[C@@]35CC[C@]2(C)C1[C@]1(C)CC[C@H](C(C)(C)OC(C)=O)O1 (stereo not given in full) yielded an IC50 [1] of 22.7 µM, an IC50 [2] of 30.5 µM and an IC50 [3] of 68.4 µM. The IC50 [4] was 40.7 µM.
CC1(C)C(=O)CC[C@]23C[C@]24CC[C@]2(C)C([C@]5(C)CCC(=O)O5)C(=O)C[C@@]2(C)C4CCC13 (stereo not given in full) was tested, and the IC50 [1] was > 100 µM, the IC50 [2] was > 100 µM and the IC50 [3] was > 100 µM. For the same compound, the IC50 [4] was > 100 µM.
With CC1(C)C(O)=C(C=O)C[C@]23C[C@]24CC[C@]2(C)C([C@]5(C)CC[C@H](C(C)(C)O)O5)C(O)C[C@@]2(C)C4CCC13 (stereo not given in full) the IC50 [1] was 5.69 µM, the IC50 [2] was 5.88 µM and the IC50 [3] was 14.4 µM. For the same compound, the IC50 [4] was 9.82 µM.
